The conditions of series [1]: mice; HSPM formed by N-deethylation of DEHSPM; cited from earlier work.
The conditions of series [2]: dog; compared with 2-3 weeks in mice; cited from earlier work.
The next series deals with small intestine. To be noted: rats; previously reported; cited from earlier work.
Series [3] deals with stress-induced irritable bowel syndrome in rats. In words: Stress-induced irritable bowel syndrome in rats. To be noted: for stool output: 30 min before stress, 6-h collection period; for % reduction (stool output): vs control (0 mg/kg), (1.0-T/C) × 100. The series is classed as in vivo, rat (Sprague-Dawley). As for the experimental part: Male Sprague-Dawley rats (200-350 g, Harlan Sprague-Dawley, Indianapolis, Ind.) were housed in hanging wire cages in a temperature- and humidity-controlled room with a 12hour light/dark cycle; the animals were fasted overnight (unless non-fasted rats were utilized in experiments involving PO administration) and allowed free access to water. Animal care and experimental procedures were approved by the Institutional Animal Care and Use Committee. A typical experiment involved 20 rats: 5 untreated controls and 5 pretreated with polyamine analogues at each of three doses as either a SC injection or a PO gavage 30 min prior to commencement of the stress. All animals were then housed in individual polycarbonate cages containing a clear 70×50 mm Pyrex crystallization dish inverted in the center. To begin the stress, water was added to each cage to within 0.5 cm of the top of the Pyrex dish. The fecal output of the animals was recorded at 30-min intervals for a 6-h period, during which they received no food or water. Stool output was expressed as the number of fecal pellets excreted over the 6-h collection period. Percent reduction was calculated by dividing the mean value from the treated animals (T) by the mean value from the control animals (C), subtracting the resulting quotient from 1.0, and multiplying by 100 [i.e., (1.0−T/C)×100].

For series [4], the system named is castor oil-induced diarrhea in rats. Kind of series: Castor oil-induced diarrhea in rats. The series is classed as in vivo, rat (Sprague-Dawley). To be noted: for weight loss: 30 min before castor oil 5 mL/kg, 6-h period; for stool output: 30 min before castor oil, 6-h collection period; for % reduction (weight loss) / % reduction (stool output): vs control (0 mg/kg); for % reduction (weight loss): (1.0-T/C) × 100. The protocol: Male Sprague-Dawley rats (350-400 g, Harlan Sprague-Dawley, Indianapolis, Ind.) were fasted overnight in hanging wire cages and allowed free access to water. A typical experiment involved 20 rats: 5 untreated controls and 5 pretreated with polyamine analogues at each of three doses (typically equivalent on a molar basis to 1, 5, 10, or 25 mg/kg of DEHSPM) as either a sc injection or a po gavage 30 min prior to castor oil. All animals were then challenged with castor oil (purchased from a local drugstore) as a gastric gavage of 5 mL/kg of body weight at t=0 and monitored for the onset and duration of diarrhea at 30-min intervals for a 6-h period during which they received no food or water (Eaker, E. Y.; Bixler, G. B.; Mathias, J. R., J. Pharm Exp. Ther. 1988, 246, 786-789). Onset of diarrhea for the control rats was between 30 and 90 min and lasted for at least 6 h. The animal weight and stool weight were recorded at 2, 4, and 6 h.

Where [5] appears, read: sc 0.03125 mg/kg (0.0726 μmol/kg).

Structures can show the parent of a compound that is named as a salt.

With `NCCCCNCCCCNCCCCN` [HSPM, homospermine], the half life in series [1] was 2-3 weeks. In addition, the “half life (in words)” value in series [2] is on record as “even longer”.
As for `CCNCCCCNCCCCNCCCCNCC` [DEHSPM, N^1, N^14 diethylhomospermine], in the series on small intestine, the “myoelectric activity and transit of the small intestine (in words)” value is “inhibited”.
In the case of `CCNCCCN[C@H]1CC[C@H](NCCCNCC)CC1` [CHX(3,4,3)-trans, N,N′-Bis[3-(ethylamino)propyl]-trans-1,4-cyclohexanediamine tetrahydrochloride], the “fecal output after oral administration (in words)” value in series [3] (oral, doses ≧5 mg/kg, P≦0.001) is on record as “diminished fecal output”. Also, the “stool output” value is on record as 5.4 ± 2.1 number of fecal pellets in series [3] (setting [5]); 2.2 ± 1.3 number of fecal pellets in series [3] (sc 0.0625 mg/kg (0.145 μmol/kg)); 0.6 ± 0.9 number of fecal pellets in series [3] (sc 0.125 mg/kg (0.29 μmol/kg)); 0 ± 0 number of fecal pellets in series [3] (sc 0.25 mg/kg (0.58 μmol/kg)); 0 ± 0 number of fecal pellets in series [3] (sc 0.5 mg/kg (1.16 μmol/kg)); 0 ± 0 number of fecal pellets in series [3] (sc 0.99 mg/kg (2.3 μmol/kg)). Besides, the stool output in series [4] (sc 0.0078 mg/kg) is 3.6 ± 1.3 g of stool excreted per 350 g of rat weight; in series [4] (sc 0.0156 mg/kg), 0.4 ± 0.9 g of stool excreted per 350 g of rat weight; in series [4] (sc 0.03125 mg/kg), 0 ± 0 g of stool excreted per 350 g of rat weight; in series [4] (sc 0.125 mg/kg), 0 ± 0 g of stool excreted per 350 g of rat weight; in series [4] (sc 0.25 mg/kg) it was 0 ± 0 g of stool excreted per 350 g of rat weight; in series [4] (sc 0.5 mg/kg), 0 ± 0 g of stool excreted per 350 g of rat weight. The stool output in series [4] (sc 0.625 mg/kg (0.145 μmol/kg)), in series [4] (sc 0.99 mg/kg), in series [4] (sc 4.97 mg/kg) and in series [4] (sc 24.87 mg/kg) was 0 ± 0 g of stool excreted per 350 g of rat weight in each case. The “% reduction (stool output)” value in series [3] (sc 0.03125 mg/kg) was determined as 52.2%; in series [3] (sc 0.0625 mg/kg) it was 80.5%; in series [3] (sc 0.125 mg/kg), 94.7%; in series [3] (sc 0.25 mg/kg) it was 100%; in series [3] (sc 0.5 mg/kg), 100%; in series [3] (sc 0.99 mg/kg), 100%. The “% reduction (stool output)” value in series [4] (sc 0.0156 mg/kg) amounted to 92%; in series [4] (sc 0.03125 mg/kg) it was 100%; in series [4] (sc 0.125 mg/kg), 100%; in series [4] (sc 0.25 mg/kg), 100%; in series [4] (sc 0.5 mg/kg), 100%; in series [4] (sc 0.625 mg/kg (0.145 μmol/kg)) it was 100%. Moreover, the “% reduction (stool output)” value in series [4] (sc 0.99 mg/kg), in series [4] (sc 4.97 mg/kg) and in series [4] (sc 24.87 mg/kg) was 100% in each case. Besides, in series [3] (sc, doses ranging from 0.03 mg/kg to 0.99 mg/kg, all dose levels, P<0.001), the “reduction in fecal output (in words)” value was “significant reduction in fecal output”. The weight loss in series [4] (sc 0.0078 mg/kg (0.0181 μmol/kg)) was 8.8 ± 1.2 g of weight lost per 350 g of rat weight; in series [4] (sc 0.0156 mg/kg (0.036 μmol/kg)) it was 3.1 ± 1.2 g of weight lost per 350 g of rat weight; in series [4] (setting [5]), 4.2 ± 1.7 g of weight lost per 350 g of rat weight; in series [4] (sc 0.125 mg/kg (0.29 μmol/kg)), 4.1 ± 0.7 g of weight lost per 350 g of rat weight; in series [4] (sc 0.25 mg/kg (0.58 μmol/kg)), 2.7 ± 0.7 g of weight lost per 350 g of rat weight; in series [4] (sc 0.5 mg/kg (1.16 μmol/kg)) it was 2.9 ± 0.1 g of weight lost per 350 g of rat weight. The weight loss in series [4] (sc 0.625 mg/kg (0.145 μmol/kg)) was 3.7 ± 0.8 g of weight lost per 350 g of rat weight; in series [4] (sc 0.99 mg/kg (2.3 μmol/kg)), 2.7 ± 1.3 g of weight lost per 350 g of rat weight; in series [4] (sc 4.97 mg/kg (11.6 μmol/kg)) it was 1.6 ± 1.1 g of weight lost per 350 g of rat weight; in series [4] (sc 24.87 mg/kg (57.8 μmol/kg)), 0.8 ± 0.7 g of weight lost per 350 g of rat weight. Also, the “% reduction (weight loss)” value in series [4] (sc 0.0078 mg/kg) is 24%; in series [4] (sc 0.0156 mg/kg) it was 73%; in series [4] (sc 0.03125 mg/kg) it was 64%; in series [4] (sc 0.125 mg/kg), 65%; in series [4] (sc 0.25 mg/kg), 77%; in series [4] (sc 0.5 mg/kg), 75%. For the same compound, the “% reduction (weight loss)” value worked out at 68% in series [4] (sc 0.625 mg/kg (0.145 μmol/kg)), 77% in series [4] (sc 0.99 mg/kg), 86% in series [4] (sc 4.97 mg/kg) and 93% in series [4] (sc 24.87 mg/kg). For the same compound, in series [4] (sc doses of 0.0156 mg/kg to 24.9 mg/kg, P<0.001 for all doses), the “stool output relative to controls (in words)” value is on record as “significantly decreased stool output”. The “reduction in weight loss (in words)” value in series [4] (sc, doses ranging from 0.0078 mg/kg to 24.9 mg/kg, all dose levels, P<0.005 to P<0.001) is listed as “significant reduction in weight loss”.
